Experimental data as given in US12459932B2, “KIF18A inhibitors” (AMGEN INC., priority 2018, dated 2025).
pIC50: −log10 of the molar value.

These compounds were tested against T1, Recombinant human KIF18A (1-467 His-tagged) (Homo sapiens, UniProt Q8NI77) (assay: KIF18A Enzyme Assay: microtubule-stimulated ATPase activity (ADP-Glo)). Settings: 30 nM KIF18A, 30 μg/mL pig microtubules, ATP 75 μM (Km), ADP-Glo luminescence.
T1 construct: Recombinant human KIF18A (1-467 His-tagged) protein; His
Format: biochemical
How it was run: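 Measures microtubule-stimulated ATPase activity as ADP formed, detected by luminescence. Compounds were tested as 2-fold serial dilutions over 22 points. IC50 values came from four-parameter logistic fits.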

T1 sequence (Q8NI77 1-467): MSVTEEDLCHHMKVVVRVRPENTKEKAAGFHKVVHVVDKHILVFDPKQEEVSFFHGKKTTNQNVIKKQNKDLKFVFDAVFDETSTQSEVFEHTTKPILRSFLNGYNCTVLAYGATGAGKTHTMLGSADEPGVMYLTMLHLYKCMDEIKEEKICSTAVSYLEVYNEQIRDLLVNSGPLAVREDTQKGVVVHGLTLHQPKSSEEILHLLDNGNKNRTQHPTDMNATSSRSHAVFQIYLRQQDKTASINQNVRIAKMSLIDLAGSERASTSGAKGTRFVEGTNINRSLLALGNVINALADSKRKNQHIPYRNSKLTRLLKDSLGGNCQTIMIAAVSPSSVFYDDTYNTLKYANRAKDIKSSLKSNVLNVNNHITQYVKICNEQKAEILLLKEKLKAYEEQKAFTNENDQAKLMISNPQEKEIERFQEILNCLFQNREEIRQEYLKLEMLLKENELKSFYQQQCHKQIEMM
T1 sequence (P02550 whole entry partner): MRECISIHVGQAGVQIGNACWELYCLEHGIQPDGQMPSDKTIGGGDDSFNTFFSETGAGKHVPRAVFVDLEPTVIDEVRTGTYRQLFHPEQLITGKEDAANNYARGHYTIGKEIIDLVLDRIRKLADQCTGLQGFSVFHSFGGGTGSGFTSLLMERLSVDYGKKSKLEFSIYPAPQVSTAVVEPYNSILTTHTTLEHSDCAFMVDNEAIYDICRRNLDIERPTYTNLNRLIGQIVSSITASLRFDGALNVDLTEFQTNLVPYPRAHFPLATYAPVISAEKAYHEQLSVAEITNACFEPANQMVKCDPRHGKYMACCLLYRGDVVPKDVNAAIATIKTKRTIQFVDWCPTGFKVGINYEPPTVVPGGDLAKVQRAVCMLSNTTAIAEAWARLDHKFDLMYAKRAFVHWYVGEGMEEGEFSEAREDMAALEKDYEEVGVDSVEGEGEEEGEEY
T1 sequence (P02554 whole entry partner): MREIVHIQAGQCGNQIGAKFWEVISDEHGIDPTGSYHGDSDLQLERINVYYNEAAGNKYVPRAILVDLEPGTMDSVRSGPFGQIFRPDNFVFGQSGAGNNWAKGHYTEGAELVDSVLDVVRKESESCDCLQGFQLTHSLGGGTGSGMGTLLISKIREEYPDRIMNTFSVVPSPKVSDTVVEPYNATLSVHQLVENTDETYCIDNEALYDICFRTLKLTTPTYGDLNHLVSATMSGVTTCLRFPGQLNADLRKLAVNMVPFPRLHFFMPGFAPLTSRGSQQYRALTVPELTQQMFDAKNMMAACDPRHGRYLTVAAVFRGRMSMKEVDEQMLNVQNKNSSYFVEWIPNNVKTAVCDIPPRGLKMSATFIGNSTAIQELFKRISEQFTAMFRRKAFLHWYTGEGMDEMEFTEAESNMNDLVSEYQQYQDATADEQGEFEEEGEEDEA

pIC50	Structure (SMILES)
6.89	CC(C)(O)c1cccc(NC(=O)c2ccc(NS(=O)(=O)C3(C)CC3)cc2N2CCC3(CC2)CC3)n1 [Example 4-1, N-(6-(2-Hydroxypropan-2-yl)pyridin-2-yl)-4-((1-methylcyclopropane)-1-sulfonamido)-2-(6-azaspiro[2.5]octan-6-yl)benzamide]
7.10	CC1(NS(=O)(=O)c2ccc(C(=O)Nc3cccc(C(C)(C)O)n3)c(N3CCC4(CC3)CC4)c2)COC1 [Example 4-2, N-(6-(2-Hydroxypropan-2-yl)pyridin-2-yl)-4-(N-(3-methyloxetan-3-yl)sulfamoyl)-2-(6-azaspiro[2.5]octan-6-yl)benzamide]
7.07	CC(C)(C)NS(=O)(=O)c1ccc(C(=O)Nc2cccc(N3CCO[C@H](CO)C3)n2)c(N2CCC3(CC2)CC3)c1 [Example 4-3, (S)-4-(N-(tert-Butyl)sulfamoyl)-N-(6-(2-(hydroxymethyl)morpholino)pyridin-2-yl)-2-(6-azaspiro[2.5]octan-6-yl)benzamide]

Further lines, the compound ahead of its results:

Structure (SMILES)	pIC50
CC1(S(=O)(=O)Nc2ccc(C(=O)Nc3cccc(N4CCc5cc(Cl)ccc54)n3)c(N3CCC4(CC3)CC4)c2)CC1 [Example 3-15, N-(6-(5-Chloroindolin-1-yl)pyridin-2-yl)-4-((1-methylcyclopropane)-1-sulfonamido)-2-(6-azaspiro[2.5]octan-6-yl)benzamide]	7.48
CC1(S(=O)(=O)Nc2ccc(C(=O)Nc3cccc(N4CC(F)C4)n3)c(N3CCC4(CC3)CC4)c2)CC1 [Example 3-16, N-(6-(3-Fluoroazetidin-1-yl)pyridin-2-yl)-4-((1-methylcyclopropane)-1-sulfonamido)-2-(6-azaspiro[2.5]octan-6-yl)benzamide]	7.24
CC1(S(=O)(=O)Nc2ccc(C(=O)Nc3cccc(N4CCCCC4)n3)c(N3CCC4(CC3)CC4)c2)CC1 [Example 3-17, 4-((1-Methylcyclopropane)-1-sulfonamido)-N-(6-(piperidin-1-yl)pyridin-2-yl)-2-(6-azaspiro[2.5]octan-6-yl)benzamide]	7.47
CC1(S(=O)(=O)Nc2ccc(C(=O)Nc3cccc(N4CC(F)(F)C4)n3)c(N3CCC4(CC3)CC4)c2)CC1 [Example 3-18, N-(6-(3,3-Difluoroazetidin-1-yl)pyridin-2-yl)-4-((1-methylcyclopropane)-1-sulfonamido)-2-(6-azaspiro[2.5]octan-6-yl)benzamide]	7.32
Cc1cc(NC(=O)c2ccc(NS(=O)(=O)C3(C)CC3)cc2N2CCC3(CC2)CC3)nc(N2CC(F)(F)C2)c1 [Example 3-19, N-(6-(3,3-Difluoroazetidin-1-yl)-4-methylpyridin-2-yl)-4-((1-methylcyclopropane)-1-sulfonamido)-2-(6-azaspiro[2.5]octan-6-yl)benzamide]	6.99
CC1(S(=O)(=O)Nc2ccc(C(=O)Nc3cccc(N4CCC5(CC5)C4)n3)c(N3CCC4(CC3)CC4)c2)CC1 [Example 3-20, N-(6-(5-Azaspiro[2.4]heptan-5-yl)pyridin-2-yl)-4-((1-methylcyclopropane)-1-sulfonamido)-2-(6-azaspiro[2.5]octan-6-yl)benzamide]	7.30
CC1(S(=O)(=O)Nc2ccc(C(=O)Nc3cccc(N4CCC(C#N)CC4)n3)c(N3CCC4(CC3)CC4)c2)CC1 [Example 3-21, N-(6-(4-Cyanopiperidin-1-yl)pyridin-2-yl)-4-((1-methylcyclopropane)-1-sulfonamido)-2-(6-azaspiro[2.5]octan-6-yl)benzamide]	7.04
CC1(S(=O)(=O)Nc2ccc(C(=O)Nc3cccc(N4CCCC(C#N)C4)n3)c(N3CCC4(CC3)CC4)c2)CC1 (stereo not drawn) [Example 3-22, N-(6-(3-Cyanopiperidin-1-yl)pyridin-2-yl)-4-((1-methylcyclopropane)-1-sulfonamido)-2-(6-azaspiro[2.5]octan-6-yl)benzamide]	7.07
CS(=O)(=O)Cc1ccc(C(=O)Nc2cccc(N3CCC[C@@H](O)C3)n2)c(N2CCC3(CC2)CC3)c1 [Example 4, (R)-N-(6-(3-hydroxypiperidin-1-yl)pyridin-2-yl)-4-((methylsulfonyl)methyl)-2-(6-azaspiro[2.5]octan-6-yl)benzamide]	7.03
